Test results reported in patent publication US12606559B2, “JAK inhibitor compounds, methods for synthesizing same and use thereof” (GALDERMA HOLDING SA, priority 2020, dated 2026).
Like-named read-outs stand apart in the source and are kept apart here.

Legend:
[1] = biological target: T1, Recombinant JAK1 (Homo sapiens, UniProt P23458); assay: In vitro enzyme assay (Cisbio kinase assay), JAK1; format: biochemical; conditions: ATP 300 μM; read-out: Enzymatic assay: IC50 JAK1
T1 construct: purchased Life Technologies PV4775

[2] = test system: IL-6 induced Phospho-STAT3 (Tyr705) in TF-1 cells; assay: In vitro cellular pSTAT3 assay, IL-6 stimulated TF-1 cells; format: cell-based; conditions: Homo sapiens
[3] = test system: IL6 signalling in hWB; assay: hWB assay, IL6; format: cell-based, human; conditions: human whole blood; read-out: hWB assay: IC50 IL6
[4] = test system: IL-6 induced p-STAT3Y705 in skin; assay: In vivo pharmacodynamy model: IL-6 induced Phospho-STAT3, topical; set-up: species or system BALB/c ByJ Rj mice; conditions: topical 1 mM, vehicle PG/EtOH 3/7
[5] = pKa; format: physicochemical
[6] = Kinetic aqueous solubility; format: physicochemical
[7] = Intrinsic clearance in minipig hepatocytes; format: in vitro ADME, male Göttingen minipig; conditions: 2.5 μM
Protocol: The intrinsic clearance was assessed in cryopreserved Hepatocytes obtained by Human livers donors of mix gender pooled together, male balb-c mouse, male Wistar Han rats and male Göttingen minipig, by looking at the parent compound disappearance. The incubations were performed using a final concentration of viable cells of 1 million/ml (viability above 70%) and test item of 2.5 μM. Incubations were followed up to 2 h. Aliquotes were withdrawn at different time points and reaction quenched with acetonitrile. After centrifugation the supernatant was analyzed by HPLC/MS to quantify the remaining amount of parent in comparison with time 0. The clearance was calculated by fitting the log of the percentage remaining with Graphpad Prism ver.7.

[8] = In vivo pharmacokinetic analysis in rat, iv; set-up: species or system male Wistar Han rat; conditions: iv 1 mg/kg; for clearance / Vd / half-life: male, Wistar Han, rat, whole blood; for clearance: blood, read-out: iv PK rat: Cl; for Vd: read-out: iv PK rat: Vd; for half-life: read-out: iv PK rat: t½ (converted)
Protocol: (§1) One male Wistar Han rat. Compound was administered intravenously to fed animal at a target dose of 1 mg/kg, dose volume: 2 mL/kg, in DMSO/hydroxypropyl-beta-cyclodextrin 20% in phosphate buffer 60 mM pH 7 (5:95). Blood samples were collected at various time points. Blood samples were then assayed using a method based upon protein precipitation with acetonitrile followed by LC/MS/MS analysis. Non-compartmental methods were used for pharmacokinetic analysis of blood concentration versus time data

[9] = In vivo pharmacokinetic analysis in minipig, iv; set-up: species or system male Göttingen minipigs; conditions: iv 1 mg/kg; for clearance: male, Göttingen, minipig, whole blood, blood, read-out: iv PK minipig: Cl
Protocol: as §1, with “Three” for “One”, “Göttingen minipigs.” for “Wistar Han rat.”, “animals” for “animal”, “volume 1” for “volume: 2”, “DMSO: hydroxypropyl-β-cyclodextrin” for “DMSO/hydroxypropyl-beta-cyclodextrin”, “data.” for “data”

[10] = test system: 3T3 murine fibroblasts; assay: Phototoxicity, neutral red uptake; format: cell-based; conditions: 3T3 fibroblasts, 7 J/cm2 UVA/UVB
Protocol: Phototoxicity was evaluated in 3T3 murine fibroblasts. Cells were incubated with different concentrations of test compounds. One plate was then exposed to a dose of 7 J/cm2 (UVA/UVB mimicking usual solar exposure) whereas the other plate was kept in the dark. The treatment medium was then replaced with culture medium and after 24 h cell viability was determined by Neutral red uptake. Concentration leading to 50% decrease of viability was calculated in the absence and in the presence of irradiation. The PIF (photo irritation factor) ratio was then calculated: […]).

[11] = test system: 44 targets (binding and enzyme/uptake assays); assay: CEREP Safety Screen-44
Protocol: (§2) An in vitro pharmacology assay was conducted to assess the capability of the compounds to interact with different pharmacological targets when tested at 10 μM in different binding and enzyme/uptake assays. The included targets are indicative of potential effects in major organs and drug-drug interactions.
Compound binding was calculated as a % inhibition of the binding of a radioactively labelled ligand specific for each target. […] […].

[12] = biological target: T2, acetylcholinesterase (h) (Homo sapiens, UniProt P22303); assay: CEREP Safety Screen-44: acetylcholinesterase (h); format: biochemical
T2 construct: CEREP
Protocol: as §2
Compound binding was calculated as a % inhibition of the binding of a radioactively labelled ligand specific for each target. […] Results showing an inhibition or stimulation higher than 50% are considered to represent significant effects of the test compounds.

[13] = Plasma exposure, dermis concentration and skin/plasma ratio compared to Ruxolitinib; conditions: in vivo
[14] = BALB/c ByJ Rj, in vivo
[15] = Systemic level in PD/IL6 mouse topical dose response; conditions: topical 10 mM, PG/Acetone/Transcutol
[16] = TF-1, cellular assay IL6, read-out: Free IC50
[17] = TF-1 cells, IL-6 100 ng/ml, pSTAT3, read-out: Cellular Assay: IC50 IL6

T1 sequence (P23458 whole entry): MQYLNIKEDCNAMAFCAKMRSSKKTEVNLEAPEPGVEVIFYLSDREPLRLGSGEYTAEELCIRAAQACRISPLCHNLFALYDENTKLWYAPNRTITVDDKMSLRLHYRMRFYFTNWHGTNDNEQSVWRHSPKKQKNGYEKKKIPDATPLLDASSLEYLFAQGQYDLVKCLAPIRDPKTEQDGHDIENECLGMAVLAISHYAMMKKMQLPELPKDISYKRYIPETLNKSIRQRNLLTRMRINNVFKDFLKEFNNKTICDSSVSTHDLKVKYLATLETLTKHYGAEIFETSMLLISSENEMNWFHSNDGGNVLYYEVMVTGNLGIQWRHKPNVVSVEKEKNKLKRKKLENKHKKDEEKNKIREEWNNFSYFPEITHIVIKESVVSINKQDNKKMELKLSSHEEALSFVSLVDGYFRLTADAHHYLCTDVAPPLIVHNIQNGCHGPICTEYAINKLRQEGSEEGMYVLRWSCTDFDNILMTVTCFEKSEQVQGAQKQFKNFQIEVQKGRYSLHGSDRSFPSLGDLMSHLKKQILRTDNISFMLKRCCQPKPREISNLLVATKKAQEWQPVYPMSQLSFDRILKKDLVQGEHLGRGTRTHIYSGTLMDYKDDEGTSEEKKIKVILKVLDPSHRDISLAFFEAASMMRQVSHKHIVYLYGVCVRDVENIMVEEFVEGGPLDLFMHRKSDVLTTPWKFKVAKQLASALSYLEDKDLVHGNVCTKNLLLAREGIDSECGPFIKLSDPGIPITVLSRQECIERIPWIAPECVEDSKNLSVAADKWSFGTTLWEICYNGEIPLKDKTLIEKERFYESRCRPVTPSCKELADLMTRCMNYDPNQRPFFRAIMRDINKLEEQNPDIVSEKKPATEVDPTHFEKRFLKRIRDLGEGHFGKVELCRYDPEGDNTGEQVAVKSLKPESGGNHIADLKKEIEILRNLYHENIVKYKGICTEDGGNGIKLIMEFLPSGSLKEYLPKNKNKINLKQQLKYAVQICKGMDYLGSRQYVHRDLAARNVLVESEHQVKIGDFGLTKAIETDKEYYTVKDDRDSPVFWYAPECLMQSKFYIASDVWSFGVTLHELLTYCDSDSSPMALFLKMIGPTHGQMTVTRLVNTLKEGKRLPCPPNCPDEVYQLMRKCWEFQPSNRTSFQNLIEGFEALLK
T2 sequence (P22303 32-614): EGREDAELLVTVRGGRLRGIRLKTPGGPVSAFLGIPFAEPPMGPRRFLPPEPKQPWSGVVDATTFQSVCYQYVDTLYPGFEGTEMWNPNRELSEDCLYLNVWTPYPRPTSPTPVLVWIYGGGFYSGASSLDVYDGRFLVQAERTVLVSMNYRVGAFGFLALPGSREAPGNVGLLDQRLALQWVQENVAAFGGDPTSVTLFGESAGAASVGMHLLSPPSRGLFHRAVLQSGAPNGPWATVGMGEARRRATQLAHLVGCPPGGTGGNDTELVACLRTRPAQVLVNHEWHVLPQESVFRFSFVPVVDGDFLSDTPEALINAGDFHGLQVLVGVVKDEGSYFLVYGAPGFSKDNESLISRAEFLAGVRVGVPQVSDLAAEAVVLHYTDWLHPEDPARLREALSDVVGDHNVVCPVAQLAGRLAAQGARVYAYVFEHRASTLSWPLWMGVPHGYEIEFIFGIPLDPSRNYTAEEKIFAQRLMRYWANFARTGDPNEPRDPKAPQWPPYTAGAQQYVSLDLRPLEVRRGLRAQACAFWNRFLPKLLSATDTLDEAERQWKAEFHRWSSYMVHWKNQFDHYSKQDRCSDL

| Compound | IC50 [1] | IC50 [2, 16] | IC50 [2, 17] | IC50 [3] | PD/IL6 mouse top @1 mM % inh vs vehicle [4] | Kinetic aq sol [6] | Intr. Clear. minipig heps [7] | iv PK rat: Cl (value in brackets, %) [8] | clearance [8] | Vd [8] | half-life [8] | iv PK minipig: Cl (value in brackets, %) [9] | clearance [9] | Phototox [10] | other results |
| --- | --- | --- | --- | --- | --- | --- | --- | --- | --- | --- | --- | --- | --- | --- | --- |
| CC1(C)CCN(C(=O)C[C@H]2C[C@@H](Nc3c(C#N)cnc4[nH]ccc34)C2)CC1 [Compound A, 4-(((cis)-3-(2-(4,4-dimethylpiperidin-1-yl)-2-oxoethyl)cyclobutyl)amino)-1H-pyrrolo[2,3-b]pyridine-5-carbonitrile] | 3 nM | 367 nM | 11 nM | 1300 nM | 66% | 15 µM | > 300 microL/min/10 6 cells | 46% | 36 mL/min/kg | 1.4 L/kg | 32.4 min | 111% | 31 mL/min/kg | Neg/Neg | pKa [5]: 3.7; Safety panel (Cerep): 44 targets % inh @ 10 microM, Nb of targets > 50% inh ([11]; 10 microM): 1/44; Safety panel (Cerep): target with > 50% inh @ 10 microM [12]: acetylcholinesterase; dermis concentration, times higher compared to Ruxolitinib [13]: 2.4; plasma exposure, times lower compared to Ruxolitinib [13]: 2.9; skin/plasma ratio, times higher compared to Ruxolitinib [13]: 7; PD/IL6 mouse top DR 0.01-10 mM: Systemic level @ 10 mM - 2 hrs [14]: 9.8 nM |
| CC1CCN(C(=O)C[C@H]2C[C@@H](Nc3c(C#N)cnc4[nH]ccc34)C2)CC1 [Compound B, 4-(((cis)-3-(2-(4-Methylpiperidin-1-yl)-2-oxoethyl)cyclobutyl)amino)-1H-pyrrolo[2,3-b]pyridine-5-carbonitrile] | 4 nM | 275 nM | 11 nM | 6900 nM | 81%/ND Tofa @ 10 mM | 35 µM | 248 microL/min/10 6 cells | 46% | 36 mL/min/kg | 0.8 L/kg | 15.6 min | 97% | 27 mL/min/kg | Neg/Neg | Safety panel (Cerep): 44 targets % inh @ 10 microM, Nb of targets > 50% inh ([11]; 10 μM): 0/44; PD/IL6 mouse top DR 0.01-10 mM: Systemic level @ 10 mM - 2 hrs [15]: 9.8 nM |
